{"source": "patent US11951094B2", "about": "“TLR2 modulator compounds, pharmaceutical compositions and uses thereof” (Axial Therapeutics, Inc., priority 2020, dated 2024)"}
{"target": "TLR2 (Homo sapiens, UniProt O60603)", "sequence (O60603 21-784)": "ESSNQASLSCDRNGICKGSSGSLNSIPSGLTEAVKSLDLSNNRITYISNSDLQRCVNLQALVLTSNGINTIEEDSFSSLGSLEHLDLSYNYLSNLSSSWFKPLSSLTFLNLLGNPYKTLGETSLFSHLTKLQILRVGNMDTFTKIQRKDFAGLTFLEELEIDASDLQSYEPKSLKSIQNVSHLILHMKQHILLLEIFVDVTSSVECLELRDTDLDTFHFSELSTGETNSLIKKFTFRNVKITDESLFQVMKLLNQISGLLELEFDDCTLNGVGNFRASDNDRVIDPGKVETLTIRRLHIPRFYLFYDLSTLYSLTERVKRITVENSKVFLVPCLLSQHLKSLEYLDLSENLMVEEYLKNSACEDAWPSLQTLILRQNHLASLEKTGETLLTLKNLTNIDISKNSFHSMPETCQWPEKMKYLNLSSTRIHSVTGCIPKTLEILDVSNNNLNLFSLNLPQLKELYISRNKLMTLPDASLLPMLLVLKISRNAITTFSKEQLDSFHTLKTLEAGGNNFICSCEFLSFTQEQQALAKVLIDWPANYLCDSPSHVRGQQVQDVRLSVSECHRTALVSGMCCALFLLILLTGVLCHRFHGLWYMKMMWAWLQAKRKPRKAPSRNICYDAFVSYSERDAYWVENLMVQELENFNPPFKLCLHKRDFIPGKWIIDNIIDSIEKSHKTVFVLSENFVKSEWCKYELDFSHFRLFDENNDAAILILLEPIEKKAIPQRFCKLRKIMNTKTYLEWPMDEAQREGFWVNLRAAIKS", "assay": "TLR2 agonist screening assay, HEK-Blue TLR2 reporter cell line (NF-kB-driven SEAP, absorbance at 600 nm)", "type": "cell-based", "set-up": "host or cells: HEK-293 (HEK-Blue TLR2 reporter cell line)", "settings": "HEK-Blue TLR2 reporter cells, agonist mode; average of all runs (Table 3)", "text": "(§1) TLRs are a class of cell-surface receptors expressed on many different cell types that recognize conserved structural motifs present on pathogen-derived molecules. TLR2 recognizes bacteria-derived lipopeptides. […] Provided herein is an assay to identify and characterize the binding affinities of novel TLR2 agonists.\n(§2) The in vitro TLR2 assay consists of a cell line that responds to TLR2 engagement by producing a factor that elicits a color change in the culture media and can be readily measured by various colorimetric detection methods. This assay enables the identification of existing and novel compounds that engage TLR2 and, by virtue of compound dilution, to approximate the binding affinity of these compounds for eliciting a TLR2 signal.\n(§3) The TLR2 screening assay was developed from the HEK-Blue TLR2 reporter cell line that is commercially available from Invivogen (San Diego, CA). The reporter cell line consists of HEK-293 embryonic kidney cells that have been engineered to express TLR2 and with an NF-kB promoter driving expression of Secreted Alkaline Phosphatase (SEAP). Upon engagement of TLR2, downstream signaling results in activation of NF-kB pathway activation and secretion of SEAR In the presence of the detection reagent in the tissue culture media, SEAP mediates a color change from clear to indigo that is readily assessed by measuring absorbance at 600 nm.\n(§4) HEK-Blue TLR2 reporter cells are cultured according to manufacturer's specifications until a confluence of 70-90%, at which point the cells are trypsinized, counted, and plated into 96-well plates at approximately 40,000 cells per well. Cells are cultured overnight and the TLR2 assay is performed 16-24 hours post-plating into 96 well plates.\n(§5) Compounds are diluted from stocks dissolved in DMSO and a 1% DMSO final concentration is maintained in all testing wells.\n(§6) The assay consists of removing the cell culture media after cells have been cultured overnight and replacing the media with HEK-Blue Detection media with TLR2 agonists at indicated dilution schemes. The Detection media contains a chemical substrate that turns from clear to indigo when acted upon by SEAP. The HEK-Blue cells are then cultured overnight in Detection media with diluted compounds. After overnight culture with agonists, each well of the plate is assayed in a plate reader at 600 nanometer absorbance.\n(§7) • (1) HEK-Blue TLR2 cells are diluted in complete DME culture medium and plated into 96-well plates at 40,000 cells per well and cultured overnight. • (2) After 16-24 hours in culture, the media is removed and replaced with 200 microliters per well of HEK-Blue Detection media. • (3) TLR2 agonists are diluted 100-fold from DMSO stocks into each well, yielding a final DMSO concentration of 1% in all wells. • (3) Treated cells are cultured overnight and the following day are assayed in plate reader for Absorbance at 600 nanometer.\n(§8) Following assay measurements utilizing either HEK-Blue detection or cytokine release, all data is analyzed with the GraphPad Prism8 statistical package to determine EC50, binding and activity metrics for the TLR2 modulators.\n(§9) Data is generated using protocol described in Example 44.", "units": {"EC50": "nM"}}
{"smiles": "O=C(N[C@H]1C[C@@H]1c1ccccc1)[C@@H]1CN(C(=O)c2cccc(C(=O)N3C[C@@H](C(=O)N[C@H]4C[C@@H]4c4ccccc4)[C@H](C(=O)N[C@H]4C[C@@H]4c4ccccc4)C3)c2)C[C@H]1C(=O)N[C@H]1C[C@@H]1c1ccccc1", "note": "(racemic) [Compound 001]", "EC50": "> 1000"}
{"smiles": "CCCCCCNC(=O)[C@H](CNC(=O)CCCCCC)NC(=O)c1ccc(C(=O)N2C[C@@H](C(=O)N[C@H]3C[C@@H]3c3ccccc3)[C@H](C(=O)N[C@H]3C[C@@H]3c3ccccc3)C2)cc1", "note": "[Compound 015]", "EC50": "> 1000"}
{"smiles": "CCCCCCCCCCCCCCNC(=O)C1CCN(C(=O)c2ccc(C(=O)N3C[C@@H](C(=O)N[C@H]4C[C@@H]4c4ccccc4)[C@H](C(=O)N[C@H]4C[C@@H]4c4ccccc4)C3)cc2)CC1", "note": "[Compound 010]", "EC50": "> 1000"}
{"smiles": "CCCCCCNC(=O)C[C@H](NC(=O)c1ccc(C(=O)N2C[C@@H](C(=O)N[C@H]3C[C@@H]3c3ccccc3)[C@H](C(=O)N[C@H]3C[C@@H]3c3ccccc3)C2)cc1)C(=O)NCCCCCC", "note": "[Compound 014]", "EC50": "> 1000"}
{"target": "TLR2 (Homo sapiens, UniProt O60603)", "assay": "TLR2 agonist screening assay, HEK-Blue TLR2 reporter cell line (NF-kB-driven SEAP, absorbance at 600 nm)", "type": "cell-based", "set-up": "host or cells: HEK-293 (HEK-Blue TLR2 reporter cell line)", "settings": "HEK-Blue TLR2 reporter cells, agonist mode; average of all runs (Table 4)", "text": "as §1, §2, §3, §4, §5, §6, §7, §8, §9", "units": {"EC50": "nM"}}
{"smiles": "CCCCCCCCCCCCCCNC(=O)[C@@H]1CN(Cc2ccc(C(=O)N3C[C@@H](C(=O)N[C@H]4C[C@@H]4c4ccccc4)[C@H](C(=O)N[C@H]4C[C@@H]4c4ccccc4)C3)cc2)C(=O)CN1C", "note": "[Compound 093, (3S,4S)-1-(4-(((S)-4-methyl-2-oxo-5-(tetradecylcarbamoyl)piperazin-1-yl)methyl)benzoyl)-N3,N4-bis((1S,2R)-2-phenylcyclopropyl)pyrrolidine-3,4-dicarboxamide]", "EC50": "51 to 350"}
{"smiles": "CCCCCCCCN1C(=O)N(Cc2ccc(C(=O)N3C[C@@H](C(=O)N[C@H]4C[C@@H]4c4ccccc4)[C@H](C(=O)N[C@H]4C[C@@H]4c4ccccc4)C3)cc2)C[C@H]1C(=O)NCCCCCC", "note": "[Compound 167, (3S,4S)-1-(4-(((S)-4-(hexylcarbamoyl)-3-octyl-2-oxoimidazolidin-1-yl)methyl)benzoyl)-N3,N4-bis((1S,2R)-2-phenylcyclopropyl)pyrrolidine-3,4-dicarboxamide]", "EC50": "0.1 to 50"}
{"smiles": "CCCCCCCC(=O)N1CCCN(S(=O)(=O)c2ccc(C(=O)N3C[C@@H](C(=O)N[C@H]4C[C@@H]4c4ccccc4)[C@H](C(=O)N[C@H]4C[C@@H]4c4ccccc4)C3)cc2)CC1C(=O)NCCCCCC", "note": "(single isomer, unassigned) [Compound 202, (3S,4S)-1-(4-(((S*)-3-(hexylcarbamoyl)-4-octanoyl-1,4-diazepan-1-yl)sulfonyl)benzoyl)-N3,N4-bis((1S,2R)-2-phenylcyclopropyl)pyrrolidine-3,4-dicarboxamide]", "EC50": "51 to 350"}
{"smiles": "CCCCCCC(=O)N[C@@H](CNC(=O)c1ccc(C(=O)N2C[C@@H](C(=O)N[C@H]3C[C@@H]3c3ccccc3)[C@H](C(=O)N[C@H]3C[C@@H]3c3ccccc3)C2)cc1)C(=O)NCCc1ccc(F)cc1", "note": "[Compound 129, (3S,4S)-1-(4-(((S)-3-((4-fluorophenethyl)amino)-2-heptanamido-3-oxopropyl)carbamoyl)benzoyl)-N3,N4-bis((1S,2R)-2-phenylcyclopropyl)pyrrolidine-3,4-dicarboxamide]", "EC50": "51 to 350"}
{"smiles": "CCCCCCCCCCCCCCS(=O)(=O)N[C@@H]1CCN(C(=O)c2ccc(C(=O)N3C[C@@H](C(=O)N[C@H]4C[C@@H]4c4ccccc4)[C@H](C(=O)N[C@H]4C[C@@H]4c4ccccc4)C3)cc2)C1", "note": "[Compound 083, (3S,4S)—N3,N4-bis((1S,2R)-2-phenylcyclopropyl)-1-(4-((R)-3-(tetradecylsulfonamido)pyrrolidine-1-carbonyl)benzoyl)pyrrolidine-3,4-dicarboxamide]", "EC50": "> 1000"}
{"smiles": "CCCCCCN1C(=O)[C@H](CCCCC)NC(=O)[C@@H]1CNC(=O)c1ccc(C(=O)N2C[C@@H](C(=O)N[C@H]3C[C@@H]3c3ccccc3)[C@H](C(=O)N[C@H]3C[C@@H]3c3ccccc3)C2)cc1", "note": "[Compound 159]", "EC50": "351 to 1000"}
{"smiles": "O=C(N[C@H]1C[C@@H]1c1ccccc1)[C@@H]1CN(C(=O)c2ccc(C(=O)N3C[C@@H](C(=O)N[C@@H]4C[C@H]4c4cccnc4)[C@H](C(=O)N[C@@H]4C[C@H]4c4cccnc4)C3)cc2)C[C@H]1C(=O)N[C@H]1C[C@@H]1c1ccccc1", "note": "(single isomer, unassigned) [Compound 095, (3S,4S)-1-(4-((3S,4S)-3,4-bis(((1S*,2R*)-2-(pyridin-3-yl)cyclopropyl)carbamoyl)pyrrolidine-1-carbonyl)benzoyl)-N3,N4-bis((1S,2R)-2-phenylcyclopropyl) pyrrolidine-3,4-dicarboxamide]", "EC50": "351 to 1000"}
{"smiles": "CCCCCCCC(=O)N1CCN(S(=O)(=O)c2cccc(C(=O)N3C[C@@H](C(=O)N[C@H]4C[C@@H]4c4ccccc4)[C@H](C(=O)N[C@H]4C[C@@H]4c4ccccc4)C3)c2)C[C@@H]1C(=O)NCCCCCC", "note": "[Compound 171, (3S,4S)-1-(3-(((R)-3-(hexylcarbamoyl)-4-octanoylpiperazin-1-yl)sulfonyl)benzoyl)-N3,N4-bis((1S,2R)-2-phenylcyclopropyl)pyrrolidine-3,4-dicarboxamide]", "EC50": "> 1000"}
{"smiles": "CO[C@H]1CN(C(=O)c2ccc(C(=O)N3C[C@@H](C(=O)N[C@H]4C[C@@H]4c4ccccc4)[C@H](C(=O)N[C@H]4C[C@@H]4c4ccccc4)C3)cc2)C[C@@H]1NC(=O)NCc1ccc(F)cc1", "note": "[Compound 183, (3S,4S)-1-(4-((3S,4S)-3-(3-(4-fluorobenzyl)ureido)-4-methoxypyrrolidine-1-carbonyl)benzoyl)-N3,N4-bis((1S,2R)-2-phenylcyclopropyl)pyrrolidine-3,4-dicarboxamide]", "EC50": "51 to 350"}
{"smiles": "CCCCCCCCCCCCCNC(=O)N[C@H]1CN(c2ncc(-c3ccc(C(=O)N4C[C@@H](C(=O)N[C@H]5C[C@@H]5c5ccccc5)[C@H](C(=O)N[C@H]5C[C@@H]5c5ccccc5)C4)cc3)o2)C[C@@H]1OC", "note": "[Compound 234, (3S,4S)-1-(4-(2-((3S,4S)-3-methoxy-4-(3-tridecylureido)pyrrolidin-1-yl)oxazol-5-yl)benzoyl)-N3,N4-bis((1S,2R)-2-phenylcyclopropyl)pyrrolidine-3,4-dicarboxamide]", "EC50": "> 1000"}
{"smiles": "CCCCCCCCCCCCCNC(=O)N[C@H]1CN(C(=O)Nc2ccc(C(=O)N3C[C@@H](C(=O)N[C@H]4C[C@@H]4c4ccccc4)[C@H](C(=O)N[C@H]4C[C@@H]4c4ccccc4)C3)cc2)C[C@@H]1OC", "note": "[Compound 238, (3S,4S)-1-(4-((3S,4S)-3-methoxy-4-(3-tridecylureido)pyrrolidine-1-carboxamido)benzoyl)-N3,N4-bis((1S,2R)-2-phenylcyclopropyl)pyrrolidine-3,4-dicarboxamide]", "EC50": "351 to 1000"}
{"smiles": "CCCCCCCC[C@H]1CN(C(=O)c2ccc(C(=O)N3C[C@@H](C(=O)N[C@H]4C[C@@H]4c4ccccc4)[C@H](C(=O)N[C@H]4C[C@@H]4c4ccccc4)C3)cc2)C[C@H]1C(=O)NCCCCCC", "note": "(relative stereo) [Compound 086, (3S,4S)-1-(4-((3S*,4R*)-3-(hexylcarbamoyl)-4-octylpyrrolidine-1-carbonyl)benzoyl)-N3,N4-bis((1S,2R)-2-phenylcyclopropyl)pyrrolidine-3,4-dicarboxamide]", "EC50": "> 1000"}
{"smiles": "CCCCCCCCCC(=O)N[C@@H](CNc1nc2ccc(C(=O)N3C[C@@H](C(=O)N[C@H]4C[C@@H]4c4ccccc4)[C@H](C(=O)N[C@H]4C[C@@H]4c4ccccc4)C3)cc2o1)C(=O)NCCCCCC", "note": "[Compound 261, (3S,4S)-1-(2-(((S)-2-decanamido-3-(hexylamino)-3-oxopropyl)amino)benzo[d]oxazole-6-carbonyl)-N3,N4-bis((1S,2R)-2-phenylcyclopropyl)pyrrolidine-3,4-dicarboxamide]", "EC50": "> 1000"}
{"smiles": "CCCCCCCC(=O)N1CCN(Cc2ccc(C(=O)N3C[C@@H](C(=O)N[C@H]4C[C@@H]4c4ccccc4)[C@H](C(=O)N[C@H]4C[C@@H]4c4ccccc4)C3)cc2)C[C@H]1C(=O)NCCCCCC", "note": "[Compound 122, (3S,4S)-1-(4-(((S)-3-(hexylcarbamoyl)-4-octanoylpiperazin-1-yl)methyl)benzoyl)-N3,N4-bis((1S,2R)-2-phenylcyclopropyl) pyrrolidine-3,4-dicarboxamide]", "EC50": "> 1000"}
{"smiles": "CCCCCCCCCC(=O)N[C@@H](COCc1ccc(C(=O)N2C[C@@H](C(=O)N[C@H]3C[C@@H]3c3ccccc3)[C@H](C(=O)N[C@H]3C[C@@H]3c3ccccc3)C2)cc1)C(=O)NCCCCCC", "note": "[Compound 263, (3S,4S)-1-(4-(((S)-2-decanamido-3-(hexylamino)-3-oxopropoxy)methyl)benzoyl)-N3,N4-bis((1S,2R)-2-phenylcyclopropyl) pyrrolidine-3,4-dicarboxamide]", "EC50": "351 to 1000"}
